Results reported in patent US20230271770A1, “Anti-Viral Pharmaceutical Formulations Administered Via Devices for Lung Targeted Delivery” (priority 2020, published 2023).

Columns and labels:
[1] = Cascade Impactor (Andersen) test, MDI actuator for stand-alone (handheld) use; type: physicochemical
Excerpt: The particle size of an inhalation drug may be measured by an instrument called a Cascade Impactor, which consists of multiple discs. The size of the discs is graduated to properly determine the size of the particulate matter at various stages of the Cascade Impactor, which each represent the drug delivery to different portions of the entire respiratory tract. The Cascade Impactor collects samples of the drug in a graduated manner on each disc such that the average particle size of the collected drugs can be measured for each stage.
As discussed above, the particle size of an inhalation drug, namely the API, can be measured by a Cascade Impactor (Westech Instruments), which consists of multiple stages (0-7). The particle sizes at each stage are listed in Table 8, which represents the drug delivery to different portions of the entire respiratory tract using a stand-alone MDI actuator, for example actuator 500, discussed above.
As described above, the disclosed MDI actuator nozzles may include an inner diameter that is optimized to dispense fine API particle sizes, such as API particles having a diameter of about 1.1 μm or less. Table 12, below, outlines a study of the amount percentage (%) of fine API particles having particle diameters of less than about 1.1 μm versus nozzle inner diameter size of the disclosed MDI actuators, for example MDI actuator 500. […] The general components of MDI actuator 500 was utilized, but different nozzle inner diameter sizes were tested in this study. In particular, 3 different MDI actuators were tested: (1) MDI actuator having 0.42 mm nozzle inner diameter (“MDI Actuator A”), (2) MDI actuator having 0.28 mm nozzle inner diameter (“MDI Actuator B”), and (3) MDI actuator having 0.20 mm nozzle inner diameter (“MDI Actuator C”).

[2] = In-line Cascade Impactor (Andersen) evaluation, MDI actuator through elbow connection and ventilator tubing; type: physicochemical; design: Delivered <1.1 mcm / Delivered <4.7 mcm: unit not given here; settings: 5% EtOH; for Delivered <4.7 mcm: Plate 3~5
Description: An example of a ventilator device, for example ventilator device 1700A, was tested and compared to a self-administrable, handheld MDI to determine the target site delivery efficiency in the ventilator circuit as compared to the MDI delivery efficiency without the ventilator circuit (e.g. no elbow connector or ventilator tubing).
Prime HCQ valve by discharging a predetermined number of actuations to waste. Discharge 10 actuations with actuator H004B-a into the cascade impaction sampling apparatus through an elbow connection w/inner channel and an in-line tubing (55 cm long).
Prime HCQ valve by discharging a predetermined number of actuations to waste. Discharge 10 actuations with actuator H004B-c into the cascade impaction sampling apparatus through an elbow connection with an inner channel and an in-line tubing (55 cm long).
Prime HCQ valve by discharging a predetermined number of actuations to waste. […]

[3] = design: species or system mice; settings: mouse, in vivo, 10 min
Description: Mice can breathe the aerosol of drug products. A breathing tank is used for mice to breathe the aerosol of the drug product, such as HCQ. The drug product is administered through the specially designed stainless steel breathing tank 1800, for example as shown in FIG. 18.
The exposure tank size is designed such that the total breathing volume of all eight mice during a 10-minute breathing treatment (1.8 L) is less than 10% of the tank size (21.5 L). The internal wall of the tank is electrically polished to minimize its adsorption of the study drug. Eight mice were mounted to the tank with four mice on each side using small animal restraints. At the start of each treatment session, an effective amount of the drug was administered into pre-cleaned tank. A stirring fan installed inside the tank was set to promote circulation of the pharmaceutical agent. Specifically, the fan was set at 400 RPM in this study and turned on before the pharmaceutical agent was administered. Thirty seconds after the last spray (t=0 minute), eight mice were mounted to the inhalation chamber to breathe the air from inside the breathing tank for 10 minutes, and then were taken off the breathing tank. Samples from the mice were taken, starting immediately after removal from the tank, to perform pharmacokinetic studies. […]

[4] = HCQ particles typically inhaled to treat asthma; cited from earlier work
[5] = human, in vivo, po; cited from earlier work

## CCN(CCO)CCCC(C)Nc1ccnc2cc(Cl)ccc12 (stereo not drawn) [HCQ, hydroxychloroquine]
[1]; Actuator A (nozzle 0.42 mm)
  EPM (6-filter; P6-F, <1.1 μm for Alveoli), Compared to strength (delivery rate): 21.6%
[1]; Actuator B (nozzle 0.28 mm)
  EPM (6-filter; P6-F, <1.1 μm for Alveoli), Compared to strength (delivery rate): 39.7%
[1]; Actuator C (nozzle 0.20 mm)
  EPM (6-filter; P6-F, <1.1 μm for Alveoli), Compared to strength (delivery rate): about 53.9%
[1]; Alveoli, <1.1 mcm, actuator O-0.20, 5% EtOH, 200 mcg
  Delivery Rate: 44.5%
[1]; Alveoli, <1.1 mcm, actuator O-0.20, 5% EtOH, 200 mcg (Table 21)
  Delivery Rate: 44.5%
[1]; Alveoli, actuator O-0.20, 5% EtOH, 200 mcg
  Delivered <1.1 mcm: 89
[1]; Alveoli, actuator O-0.20, 5% EtOH, 200 mcg (Table 21)
  Delivered <1.1 mcm: 89
[1]; Plate 3~5, <4.7 mcm, actuator O-0.20, 5% EtOH, 200 mcg
  Delivery Rate: 50.7%
[1]; Plate 3~5, actuator O-0.20, 5% EtOH, 200 mcg
  Delivered <4.7 mcm: 101.3
[2]; Alveoli, <1.1 mcm, in-Linc Tube (15 cm), HCQB-c, connection w/o inner channel, 200 mcg (#6)
  Delivery Rate: 34.2%
[2]; Alveoli, <1.1 mcm, in-Line Tube (15 cm), HCQB-a, connection w/o inner channel, 200 mcg
  Delivery Rate: 32.2%
[2]; Alveoli, <1.1 mcm, in-Line Tube (15 cm), HCQB-b, connection w/o inner channel, 200 mcg
  Delivery Rate: 31.3%
[2]; Alveoli, <1.1 mcm, in-Line Tube (15 cm), HCQB-c, connection w/o inner channel, 200 mcg (#4)
  Delivery Rate: 43.3%
[2]; Alveoli, <1.1 mcm, in-Line Tube (15 cm), HCQB-d, connection w/o inner channel, Ave, 200 mcg
  Delivery Rate: 36.9%
[2]; Alveoli, <1.1 mcm, in-Line Tube (15 cm), HCQB-f, connection w/o inner channel, 200 mcg
  Delivery Rate: 23.2%
[2]; Alveoli, <1.1 mcm, in-Line Tube (15 cm), HCQB-g, connection w/inner channel, 200 mcg
  Delivery Rate: 34.0%
[2]; Alveoli, <1.1 mcm, in-Line Tube (15 cm), HCQB-g, connection w/o inner channel, 200 mcg
  Delivery Rate: 31.5%
[2]; Alveoli, <1.1 mcm, in-Line Tube (15 cm), HCQB-h, connection w/ inner channel, 200 mcg
  Delivery Rate: 35.9%
[2]; Alveoli, <1.1 mcm, in-Line Tube (15 cm), HCQB-h, connection w/o inner channel, 200 mcg
  Delivery Rate: 31.1%
[2]; Alveoli, <1.1 mcm, in-Line Tube (15 cm), HCQB-i, connection w/inner channel, 200 mcg
  Delivery Rate: 27.5%
[2]; Alveoli, <1.1 mcm, in-Line Tube (15 cm), HCQB-i, connection w/o inner channel, 200 mcg
  Delivery Rate: 37.9%
[2]; Alveoli, <1.1 mcm, in-Line Tube (15 cm), HCQB-j, connection w/o inner channel, 200 mcg
  Delivery Rate: 29.1%
[2]; Alveoli, <1.1 mcm, in-Line Tube (55 cm), HCQB-a, connection w/inner channel, 200 mcg
  Delivery Rate: 19.3%
[2]; Alveoli, <1.1 mcm, in-Line Tube (55 cm), HCQB-b, connection w/inner channel, 200 mcg
  Delivery Rate: 26.9%
[2]; Alveoli, <1.1 mcm, in-Line Tube (55 cm), HCQB-c, connection w/inner channel, Ave, 200 mcg
  Delivery Rate: 37.9%
[2]; Alveoli, <1.1 mcm, in-Line Tube (55 cm), HCQB-d, connection w/inner channel, 200 mcg
  Delivery Rate: 26.4%
[2]; Alveoli, <1.1 mcm, in-Line Tube (55 cm), HCQB-f, connection w/inner channel, Ave, 200 mcg
  Delivery Rate: 34.7%
[2]; Alveoli, <1.1 mcm, in-Line Tube (55 cm), HCQB-j, connection w/ inner channel, 200 mcg
  Delivery Rate: 30.3%
[2]; Alveoli, in-Linc Tube (15 cm), HCQB-c, connection w/o inner channel, 200 mcg (#6)
  Delivered <1.1 mcm: 68.4
[2]; Alveoli, in-Line Tube (15 cm), HCQB-a, connection w/o inner channel, 200 mcg
  Delivered <1.1 mcm: 64.4
[2]; Alveoli, in-Line Tube (15 cm), HCQB-b, connection w/o inner channel, 200 mcg
  Delivered <1.1 mcm: 62.6
[2]; Alveoli, in-Line Tube (15 cm), HCQB-c, connection w/o inner channel, 200 mcg (#4)
  Delivered <1.1 mcm: 86.6
[2]; Alveoli, in-Line Tube (15 cm), HCQB-d, connection w/o inner channel, Ave, 200 mcg
  Delivered <1.1 mcm: 73.8
[2]; Alveoli, in-Line Tube (15 cm), HCQB-f, connection w/o inner channel, 200 mcg
  Delivered <1.1 mcm: 46.3
[2]; Alveoli, in-Line Tube (15 cm), HCQB-g, connection w/inner channel, 200 mcg
  Delivered <1.1 mcm: 68.0
[2]; Alveoli, in-Line Tube (15 cm), HCQB-g, connection w/o inner channel, 200 mcg
  Delivered <1.1 mcm: 63.0
[2]; Alveoli, in-Line Tube (15 cm), HCQB-h, connection w/ inner channel, 200 mcg
  Delivered <1.1 mcm: 71.7
[2]; Alveoli, in-Line Tube (15 cm), HCQB-h, connection w/o inner channel, 200 mcg
  Delivered <1.1 mcm: 62.1
[2]; Alveoli, in-Line Tube (15 cm), HCQB-i, connection w/inner channel, 200 mcg
  Delivered <1.1 mcm: 55.0
[2]; Alveoli, in-Line Tube (15 cm), HCQB-i, connection w/o inner channel, 200 mcg
  Delivered <1.1 mcm: 75.7
[2]; Alveoli, in-Line Tube (15 cm), HCQB-j, connection w/o inner channel, 200 mcg
  Delivered <1.1 mcm: 58.1
[2]; Alveoli, in-Line Tube (55 cm), HCQB-a, connection w/inner channel, 200 mcg
  Delivered <1.1 mcm: 38.5
[2]; Alveoli, in-Line Tube (55 cm), HCQB-b, connection w/inner channel, 200 mcg
  Delivered <1.1 mcm: 53.8
[2]; Alveoli, in-Line Tube (55 cm), HCQB-c, connection w/inner channel, Ave, 200 mcg
  Delivered <1.1 mcm: 75.8
[2]; Alveoli, in-Line Tube (55 cm), HCQB-d, connection w/inner channel, 200 mcg
  Delivered <1.1 mcm: 52.8
[2]; Alveoli, in-Line Tube (55 cm), HCQB-f, connection w/inner channel, Ave, 200 mcg
  Delivered <1.1 mcm: 69.4
[2]; Alveoli, in-Line Tube (55 cm), HCQB-j, connection w/ inner channel, 200 mcg
  Delivered <1.1 mcm: 60.5
[2]; Plate 3~5, <4.7 mcm, in-Line Tube (15 cm), HCQB-g, connection w/inner channel, 200 mcg
  Delivery Rate: 30.5%
[2]; Plate 3~5, <4.7 mcm, in-Line Tube (15 cm), HCQB-h, connection w/inner channel, 200 mcg
  Delivery Rate: 25.8%
[2]; Plate 3~5, <4.7 mcm, in-Line Tube (15 cm), HCQB-i, connection w/inner channel, 200 mcg
  Delivery Rate: 22.8%
[2]; Plate 3~5, <4.7 mcm, in-Line Tube (55 cm), HCQB-a, connection w/inner channel, 200 mcg
  Delivery Rate: 13.3%
[2]; Plate 3~5, <4.7 mcm, in-Line Tube (55 cm), HCQB-b, connection w/inner channel, 200 mcg
  Delivery Rate: 21.3%
[2]; Plate 3~5, <4.7 mcm, in-Line Tube (55 cm), HCQB-c, connection w/inner channel, 200 mcg
  Delivery Rate: 29.0%
[2]; Plate 3~5, <4.7 mcm, in-Line Tube (55 cm), HCQB-d, connection w/inner channel, 200 mcg
  Delivery Rate: 23.3%
[2]; Plate 3~5, <4.7 mcm, in-Line Tube (55 cm), HCQB-e, connection w/inner channel, 200 mcg
  Delivery Rate: 29.0%
[2]; Plate 3~5, <4.7 mcm, in-Line Tube (55 cm), HCQB-f, connection w/inner channel, 200 mcg
  Delivery Rate: 28.3%
[2]; Plate 3~5, <4.7 mcm, in-Line Tube (55 cm), HCQB-j, connection w/inner channel, 200 mcg
  Delivery Rate: 20.0%
[2]; in-Line Tube (15 cm), HCQB-g, connection w/inner channel, 200 mcg
  Delivered <4.7 mcm: 60.9
[2]; in-Line Tube (15 cm), HCQB-h, connection w/inner channel, 200 mcg
  Delivered <4.7 mcm: 51.6
[2]; in-Line Tube (15 cm), HCQB-i, connection w/inner channel, 200 mcg
  Delivered <4.7 mcm: 45.5
[2]; in-Line Tube (55 cm), HCQB-a, connection w/inner channel, 200 mcg
  Delivered <4.7 mcm: 26.5
[2]; in-Line Tube (55 cm), HCQB-b, connection w/inner channel, 200 mcg
  Delivered <4.7 mcm: 42.6
[2]; in-Line Tube (55 cm), HCQB-c, connection w/inner channel, 200 mcg
  Delivered <4.7 mcm: 57.9
[2]; in-Line Tube (55 cm), HCQB-d, connection w/inner channel, 200 mcg
  Delivered <4.7 mcm: 46.6
[2]; in-Line Tube (55 cm), HCQB-e, connection w/inner channel, 200 mcg
  Delivered <4.7 mcm: 57.9
[2]; in-Line Tube (55 cm), HCQB-f, connection w/inner channel, 200 mcg
  Delivered <4.7 mcm: 56.5
[2]; in-Line Tube (55 cm), HCQB-j, connection w/inner channel, 200 mcg
  Delivered <4.7 mcm: 39.9
[3]
  appearance of mice during and after treatment: appeared healthy, with no signs of distress
[4]
  mean HCQ particle size: 3.2 μm
[5]
  BA: 74%
  share of tablet dose distributed to red blood cells or other protein in blood: approximately 0.25%
  share of tablet dose not absorbed or initially metabolized in liver: approximately 26%
